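Step 1: Grow cells in 96-well plates. Step 2: Expose to compound for 48 hours at 5 concentrations. Step 3: Interpolate endpoints linearly; if unreached, use highest concentration. GI50 marks 50% less growth. TGI is the concentration that stops growth completely.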
Experiments:
Test in all cases: DTP human tumour cell line panel, 48 h
A498 renal = tested on: A498 renal
HOP-62 NSCLC = tested on: HOP-62 NSCLC
HT29 colon = tested on: HT29 colon
MALME-3M melanoma = tested on: MALME-3M melanoma
NCI-H23 lung = tested on: NCI-H23 lung
NCI/ADR-RES ovarian = tested on: NCI/ADR-RES ovarian
OVCAR-8 ovarian = tested on: OVCAR-8 ovarian
RPMI-8226 leukemia = tested on: RPMI-8226 leukemia
SF-268 CNS = tested on: SF-268 CNS
UO-31 renal = tested on: UO-31 renal

Row | Structure (SMILES) | TGI (A498 renal) | TGI (HOP-62 NSCLC) | TGI (HT29 colon) | TGI (MALME-3M melanoma) | TGI (NCI-H23 lung) | TGI (NCI/ADR-RES ovarian) | TGI (OVCAR-8 ovarian) | TGI (RPMI-8226 leukemia) | TGI (SF-268 CNS) | TGI (UO-31 renal) | GI50 (A498 renal) | GI50 (MALME-3M melanoma) | GI50 (HOP-62 NSCLC) | GI50 (HT29 colon) | GI50 (NCI-H23 lung) | GI50 (NCI/ADR-RES ovarian) | GI50 (OVCAR-8 ovarian) | GI50 (RPMI-8226 leukemia) | GI50 (SF-268 CNS) | GI50 (UO-31 renal)
1 | CC1(C)C=CC(=O)C(O)C(C)(C)C1=O (centres undefined) | > 100 µM | > 100 µM | > 100 µM | > 100 µM | > 100 µM | > 100 µM | > 100 µM | > 100 µM | > 100 µM | > 100 µM |  |  |  |  |  |  |  |  |  | 
2 | Cc1nc2ccccc2c(-n2cccn2)c1CCn1cccn1 | > 100 µM | > 100 µM | > 100 µM | > 100 µM | > 100 µM | > 100 µM | > 100 µM | > 100 µM | > 100 µM | 3.43 µM |  |  |  |  |  |  |  |  |  | 
3 | CC(C)N1CCN(c2ccc(OCC3COC(Cn4cncn4)(c4ccc(Cl)cc4Cl)O3)cc2)CC1 (centres undefined) | 27.4 µM | 28.5 µM | 13.4 µM | 22.2 µM | 30.9 µM | 54.9 µM | 39.2 µM | 29.7 µM | 28.8 µM | > 42.5 µM |  |  |  |  |  |  |  |  |  | 
4 | C=CCn1c(=O)ccn(/C(=C/C(=O)OCC)C(=O)OCC)c1=O | 33.3 µM | 44.4 µM | 27.9 µM | 25.4 µM | 36.4 µM | 50.8 µM | 31.5 µM | 31.4 µM | 42.1 µM | 28.6 µM |  |  |  |  |  |  |  |  |  | 
5 | CNc1[nH]c(=S)nc2sc3c(c12)CCCC3 | > 75 µM | > 75 µM | > 75 µM | > 75 µM | > 75 µM | > 75 µM | > 75 µM | > 75 µM | > 75 µM | > 75 µM |  |  |  |  |  |  |  |  |  | 
6 | Cc1ccc2c(c1)c1ccc3c(c1n2C)C(=O)C=CC3=O | > 8.82 µM | > 10 µM | > 10 µM | 3.8 µM | 5.82 µM | > 7.53 µM | 6.01 µM | 4.2 µM | > 10 µM | 3.17 µM |  |  |  |  |  |  |  |  |  | 
7 | CO/N=C(/C(=O)OC)c1ccccc1COc1ccccc1C(F)(F)F | > 100 µM | > 100 µM | > 100 µM | 47.2 µM | > 100 µM | > 100 µM | > 100 µM | 50.3 µM | > 100 µM | > 100 µM |  |  |  |  |  |  |  |  |  | 
8 | CC(C)(CO)CNc1nc(N)nc(Cl)c1/C=N/O | > 100 µM | > 100 µM | > 100 µM | > 100 µM | > 100 µM | > 100 µM | > 100 µM | > 100 µM | > 100 µM | > 100 µM |  |  |  |  |  |  |  |  |  | 
9 | O=C(NCCCl)O/N=C/c1cccnc1 | > 100 µM | > 100 µM | > 100 µM | > 100 µM | > 100 µM | > 100 µM | > 100 µM | > 100 µM | > 100 µM | > 100 µM | 78.2 µM | 89.5 µM |  |  |  |  |  |  |  | 
10 | COc1cc2c(cc1OCCCN1C(=O)c3cccc4cccc(c34)C1=O)N=C[C@@H]1CCCN1C2=O | > 100 µM | > 100 µM | > 100 µM | 35.1 µM | > 100 µM | > 100 µM | > 100 µM | > 50.2 µM | > 100 µM | > 71 µM |  |  |  |  |  |  |  |  |  | 
11 | Cc1ccc(/C=C2/N=C(N/N=C\C(O)C(O)C(O)C(O)CO)NC2=O)cc1 (centres undefined) | > 100 µM | > 100 µM | > 100 µM | > 100 µM | > 100 µM | > 100 µM | > 100 µM | > 100 µM | > 100 µM | > 100 µM |  |  |  |  |  |  |  |  |  | 
12 | COc1cc2c(cc1OCCCCCN1CCN(c3ncnc4ccccc34)CC1)N=CC1CCCN1C2=O (centres undefined) | 0.034 µM | 0.358 µM | 10.8 µM | 0.0618 µM | 0.196 µM | > 36.4 µM | > 81.9 µM | 0.035 µM | 2.07 µM | 0.198 µM | 0.018 µM | 0.0303 µM | 25.7 nM | 27.5 nM | 34.2 nM | 378 nM | 33.4 nM | < 13.8 nM | 34.9 nM | 30 nM
13 | Cc1ccsc1/C=N/Nc1cnccn1 | > 100 µM | > 100 µM | > 100 µM | > 100 µM | > 100 µM | > 100 µM | > 100 µM | > 100 µM | > 100 µM | > 100 µM |  |  |  |  |  |  |  |  |  | 
14 | N#Cc1sc2c(c1OC(=O)c1ccc(C(F)(F)F)cc1)c(=O)n(-c1ccccc1)c(=S)n2-c1ccccc1 | 90.2 µM | > 100 µM | 82.5 µM | 84.4 µM | > 100 µM | > 100 µM | > 100 µM | 45.9 µM | > 100 µM |  |  |  |  |  |  |  |  |  |  | 
15 | O[C@H]1[C@H](O)[C@@H](O)CN2CC[C@H](O)[C@H]12 | > 100 µM | > 100 µM | > 100 µM | > 100 µM | > 100 µM | > 100 µM | > 100 µM | > 100 µM | > 100 µM | > 100 µM |  |  |  |  |  |  |  |  |  | 
16 | Cc1c2c(c(C)n1-c1ccccc1)C(=O)N(CCN1CCN(c3cccc(C(F)(F)F)c3)CC1)C2=O | > 100 µM | > 100 µM | > 100 µM | > 100 µM | > 100 µM | > 100 µM | > 100 µM | > 100 µM | > 100 µM | > 100 µM |  |  |  |  |  |  |  |  |  | 
17 | O=c1c2c(no[n+]2[O-])c2ccccc2n1-c1ccccc1 | 22.2 µM | 22.5 µM | 15.5 µM | 14.5 µM | 5.53 µM | 21.6 µM | 11.1 µM | 42.8 µM | 20.1 µM | 16.6 µM |  |  |  |  |  |  |  |  |  | 
18 | COc1cc(O)c2c(=O)c(OC)c(-c3ccc(OC)c(O)c3)oc2c1 | 15.3 µM | > 100 µM | > 100 µM | > 100 µM | > 100 µM | > 100 µM | > 100 µM | > 100 µM | > 100 µM | > 100 µM |  |  |  |  |  |  |  |  |  | 
19 | c1ccc(C2=NOC(c3ccccc3)N2C23CC4CC(CC(C4)C2)C3)cc1 (centres undefined) | > 10 µM | > 10 µM | > 10 µM | > 10 µM | > 10 µM | > 10 µM | > 10 µM | > 10 µM | > 10 µM |  |  |  |  |  |  |  |  |  |  | 
20 | CCOc1c(OC)cc(-c2nc3n(n2)C(=O)C(CC)S3)cc1OC (centres undefined) | > 10 µM | > 10 µM | > 10 µM | > 10 µM | > 10 µM | > 10 µM | > 10 µM | > 10 µM | > 10 µM |  |  |  |  |  |  |  |  |  |  | 
